Experimental data taken from patent US6780875B2, “Quinoline-4-carboxamide derivatives as NK-3 and NK-2 receptor antagonists” (SmithKline Beecham S.p.A., priority 1998, dated 2004).
Counter-ions that a name gives are not always drawn.

Row | Compound | melting point
1 | CC[C@H](NC(=O)c1c(CN2CCC3(CC2)C(=O)NCN3c2ccccc2)c(-c2ccccc2)nc2ccccc12)c1ccccc1 | 242 to 245 °C
2 | CC[C@H](NC(=O)c1c(CN2CCC(n3c(=O)[nH]c4ccccc43)CC2)c(-c2ccccc2)nc2ccccc12)c1ccccc1 | 195 to 197 °C
3 | C[C@H](NC(=O)c1c(CN2CCC(n3c(=O)[nH]c4ccccc43)CC2)c(-c2ccccc2)nc2ccccc12)C1CCCCC1 | 204 to 206 °C
4 | C[C@H](NC(=O)c1c(CN2CCN(C(=O)Cc3c[nH]cn3)CC2)c(-c2ccccc2)nc2ccccc12)C1CCCCC1 | 178 to 210 °C
5 | C[C@H](NC(=O)c1c(CN2CCN(Cc3ccccc3)CC2)c(-c2ccccc2)nc2ccccc12)C1CCCCC1 (as salt: HCl) | 176 to 179 °C
6 | CC[C@H](NC(=O)c1c(CN2CCN(C3CCCCC3)CC2)c(-c2ccccc2)nc2ccccc12)c1ccccc1 (as salt: HCl) [Example 1, 3-(4-Cyclohexyl-piperazin-1-ylmethyl)-2-phenyl-quinoline-4-carboxylic acid ((S)-1-phenyl-propyl)-amide] | 261 to 263 °C
7 | C[C@H](NC(=O)c1c(CN2CCN(CCc3ccccc3)CC2)c(-c2ccccc2)nc2ccccc12)C1CCCCC1 (as salt: HCl) [Example 5, 3-(4-Phenethyl-piperazin-1-ylmethyl)-2-phenyl-quinoline-4-carboxylic acid ((S)-1-cyclohexyl-ethyl)-amide] | 168 to 171 °C
8 | CC[C@H](NC(=O)c1c(CN2CCC(N3CCCCC3)CC2)c(-c2ccccc2)nc2ccccc12)c1ccccc1 (as salt: HCl) [Example 14, 3-[1,4′]Bipiperidinyl-1′-ylmethyl-2-phenyl-quinoline-4-carboxylic acid ((S)-1-phenyl-propyl)-amide] | 182 to 185 °C
9 | C[C@H](NC(=O)c1c(CN2CCC(N3CCCCC3)CC2)c(-c2ccccc2)nc2ccccc12)c1ccccc1 (as salt: HCl) [Example 30, 3-[1,4′]Bipiperidinyl-1′-ylmethyl-2-phenyl-quinoline-4-carboxylic acid ((S)-1-phenyl-ethyl)-amide] | 208 to 210 °C
10 | CCN1CCN(Cc2c(-c3ccccc3)nc3ccccc3c2C(=O)N[C@@H](C)C2CCCCC2)CC1 (as salt: HCl) [Example 37, 3-(4-Ethyl-piperazin-1-ylmethyl)-2-phenyl-quinoline-4-carboxylic acid ((S)-1-cyclohexyl-ethyl)-amide] | 188 to 190 °C
11 | CC[C@H](NC(=O)c1c(CN2CCN3CCCC3C2)c(-c2ccccc2)nc2ccccc12)c1ccccc1 (stereo partly drawn) (as salt: HCl) [Example 49, 3-(Hexahydro-pyrrolo[1,2-a]pyrazin-2-ylmethyl)-2-phenyl-quinoline-4-carboxylic acid ((S)-1-phenyl-propyl)-amide] | 196 to 198 °C
12 | CC(C)N1CCN(Cc2c(-c3ccccc3)nc3ccccc3c2C(=O)N[C@@H](C)C2CCCCC2)CC1 (as salt: hydrochloride) [Example 4, 3-(4-Isopropyl-piperazin-1-ylmethyl)-2-phenyl-quinoline-4-carboxylic acid ((S)-1-cyclohexyl-ethyl)-amide] | 180 to 183 °C
13 | C[C@H](NC(=O)c1c(CN2CCC(N3CCCCC3)CC2)c(-c2ccccc2)nc2ccccc12)C1CCCCC1 (as salt: hydrochloride) [Example 13, 3-[1,4′]Bipiperidinyl-1′-ylmethyl-2-phenyl-quinoline-4-carboxylic acid ((S)-1-cyclohexyl-ethyl)-amide] | 180 to 184 °C
14 | CC[C@H](NC(=O)c1c(CN2CCC(N3CCCCC3)CC2)c(-c2ccccc2)nc2cc(OC)ccc12)c1ccccc1 (as salt: hydrochloride) [Example 67, 3-[1,4′]Bipiperidinyl-1′-ylmethyl-7-methoxy-2-phenyl-quinoline-4-carboxylic acid ((S)-1-phenyl-propyl)-amide] | 208 to 210 °C
15 | CC[C@H](NC(=O)c1c(CN2CCC(c3ccccc3)CC2)c(-c2ccccc2)nc2ccccc12)c1ccccc1 [Example 2, 2-Phenyl-3-(4-phenyl-piperidin-1-ylmethyl)-quinoline-4-carboxylic acid ((S)-1-phenyl-propyl)-amide] | 90 to 95 °C
16 | CC[C@H](NC(=O)c1c(C(c2ccccc2)(N2CCCCC2)N(C)C(C)=O)c(-c2ccccc2)nc2ccccc12)c1ccccc1 (stereo partly drawn) [Example 11, 3-[(Acetyl-methyl-amino)-phenyl-piperidin-1-ylmethyl]-2-phenyl-quinoline-4-carboxylic acid ((S)-1-phenyl-propyl)-amide] | 100 °C (dec.)
17 | CC[C@H](NC(=O)c1c(CN2CCN(CCOCCO)CC2)c(-c2ccccc2)nc2ccccc12)c1ccccc1 [Example 15, 3-{4-[2-(2-Hydroxy-ethoxy)-ethyl]-piperazin-1-ylmethyl}-2-phenyl-quinoline-4-carboxylic acid ((S)-1-phenyl-propyl)-amide] | 158 to 160 °C
18 | COCCN1CCN(Cc2c(-c3ccccc3)nc3ccccc3c2C(=O)N[C@@H](C)C2CCCCC2)CC1 [Example 17, 3-[4-(2-Methoxy-ethyl)-piperazin-1-ylmethyl]-2-phenyl-quinoline-4-carboxylic acid ((S)-1-cyclohexyl-ethyl)-amide] | 113 to 115 °C
19 | CC[C@H](NC(=O)c1c(CN2CCC(N3CCC(O)CC3)CC2)c(-c2ccccc2)nc2ccccc12)c1ccccc1 [Example 18, 3-(4-Hydroxy-[1,4′]bipiperidinyl-1′-ylmethyl)-2-phenyl-quinoline-4-carboxylic acid ((S)-1-phenyl-propyl)-amide] | 166 to 168 °C
20 | CC[C@H](NC(=O)c1c(CN2CCC(N3CCOCC3)CC2)c(-c2ccccc2)nc2ccccc12)c1ccccc1 [Example 19, 3-(4-Morpholin-4-yl-piperidin-1-ylmethyl)-2-phenyl-quinoline-4-carboxylic acid ((S)-1-phenyl-propyl)-amide] | 157 to 165 °C
21 | C[C@H](NC(=O)c1c(CN2CCN(CCOCCO)CC2)c(-c2ccccc2)nc2ccccc12)C1CCCCC1 [Example 20, 3-{4-[2-(2-Hydroxy-ethoxy)-ethyl]-piperazin-1-ylmethyl}-2-phenyl-quinoline-4-carboxylic acid ((S)-1-cyclohexyl-ethyl)-amide] | 126 to 128 °C
22 | CC[C@H](NC(=O)c1c(CN2CCN(C(C)=O)CC2)c(-c2ccccc2)nc2ccccc12)c1ccccc1 [Example 23, 3-(4-Acetyl-piperazin-1-ylmethyl)-2-phenyl-quinoline-4-carboxylic acid ((S)-1-phenyl-propyl)-amide] | 117 to 119 °C
23 | C[C@H](NC(=O)c1c(CN2CCN(C(=O)c3ccccc3)CC2)c(-c2ccccc2)nc2ccccc12)C1CCCCC1 [Example 24, 2-Phenyl-3-[4-(1-phenyl-methanoyl)-piperazin-1-ylmethyl]-quinoline-4-carboxylic acid ((S)-1-cyclohexyl-ethyl)-amide] | 150 to 152 °C
24 | CC(C)C(=O)N1CCN(Cc2c(-c3ccccc3)nc3ccccc3c2C(=O)N[C@@H](C)C2CCCCC2)CC1 [Example 25, 3-[4-(2-Methyl-propanoyl)-piperazin-1-ylmethyl]-2-phenyl-quinoline-4-carboxylic acid ((S)-1-cyclohexyl-ethyl)-amide] | 149 to 151 °C
